Patent US7288543B2, “Opioid receptor antagonists” (Eli Lilly and Company, priority 2004, dated 2007)

How the values were obtained:
Type in all cases: biochemical
[1] = target: T1, cloned human mu opioid receptor (Homo sapiens, UniProt P35372); assay: GTP-γ-S binding assay (SPA), antagonist mode, mu; conditions: functional antagonist potency; membranes with cloned human mu receptor; agonist DAMGO 1 micromolar; Cheng-Prusoff
T1 construct: expressed in transfected cells
Experimental: (§1) The functional antagonist potency (Kb) of the sample compounds was determined using the GTPγS binding assay. GTPgS—based functional assays provide an in vitro measure of the activity of opioid agonists and antagonists. Opioid reference compounds or test compound are incubated with membrane homogenate from cells expressing the cloned human mu, kappa or delta opioid receptor and radiolabeled [35S]GTPgS. If the compound activates the opioid receptor, an increase in the binding of radiolabeled GTPgS is observed. […] These tests provide an in vitro measurement of the activity of the compound at human opioid receptors.
(§2) An SPA-based GTP-γ-S assay format was developed based on previous opioid (Emmerson et al., J. Pharm Exp Ther 278,1121,1996; Horng et al., Society for Neuroscience Abstracts, 434.6, 2000) and muscarinic (DeLapp et al., JPET 289, 946, 1999) assay formats. Membranes were resuspended in 20 mM HEPES, 100 mM NaCl, 5 mM MgCl2, 1 mM DTT, and 1 mM EDTA. Fifty (50) […] of GTP-γ-[35S], compound, membrane suspension (20 microgram/well), and wheat germ agglutinin coated SPA beads (1 mg/well) were added to clear bottom 96 well assay plates. GDP ([…]) was added to the membrane solution prior to addition to the assay plates. Plates were sealed and incubated for four hours at room temperature then placed in a refrigerator overnight to allow the beads to settle. Signal stability at 4° C. was determined to be >60 hours. Plates were warmed to room temperature and counted in a Wallac Microbeta scintillation counter. For antagonist assays, specific agonists were added at the following concentrations: (MOR) DAMGO 1 micromolar, (DOR) DPDPE 30 nM, (KOR) U69593 300 nM. Kb's were determined by Cheng-Prusoff equation (see Cheng and Prusoff, Biochem. Pharmacol. 22, 3099, 1973).

[2] = target: T2, cloned human kappa opioid receptor (Homo sapiens, UniProt P41145); assay: GTP-γ-S binding assay (SPA), antagonist mode, kappa; conditions: functional antagonist potency; membranes with cloned human kappa receptor; agonist U69593 300 nM; Cheng-Prusoff
T2 construct: expressed in transfected cells
Experimental: as §1, §2

[3] = target: T3, cloned human delta opioid receptor (Homo sapiens, UniProt P41143); assay: GTP-γ-S binding assay (SPA), antagonist mode, delta; conditions: functional antagonist potency; membranes with cloned human delta receptor; agonist DPDPE 30 nM; Cheng-Prusoff
T3 construct: expressed in transfected cells
Experimental: as §1, §2

T3 sequence (P41143 whole entry): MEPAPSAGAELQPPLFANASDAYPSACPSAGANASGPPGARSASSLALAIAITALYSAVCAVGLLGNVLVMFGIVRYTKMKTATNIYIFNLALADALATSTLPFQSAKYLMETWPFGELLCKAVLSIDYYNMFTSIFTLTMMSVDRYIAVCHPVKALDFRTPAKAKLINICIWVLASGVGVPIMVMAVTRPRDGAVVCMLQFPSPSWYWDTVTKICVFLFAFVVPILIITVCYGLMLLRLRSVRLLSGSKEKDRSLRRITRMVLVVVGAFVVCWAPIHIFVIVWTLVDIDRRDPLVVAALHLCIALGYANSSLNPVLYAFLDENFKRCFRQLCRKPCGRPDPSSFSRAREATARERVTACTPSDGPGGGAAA
T2 sequence (P41145 whole entry): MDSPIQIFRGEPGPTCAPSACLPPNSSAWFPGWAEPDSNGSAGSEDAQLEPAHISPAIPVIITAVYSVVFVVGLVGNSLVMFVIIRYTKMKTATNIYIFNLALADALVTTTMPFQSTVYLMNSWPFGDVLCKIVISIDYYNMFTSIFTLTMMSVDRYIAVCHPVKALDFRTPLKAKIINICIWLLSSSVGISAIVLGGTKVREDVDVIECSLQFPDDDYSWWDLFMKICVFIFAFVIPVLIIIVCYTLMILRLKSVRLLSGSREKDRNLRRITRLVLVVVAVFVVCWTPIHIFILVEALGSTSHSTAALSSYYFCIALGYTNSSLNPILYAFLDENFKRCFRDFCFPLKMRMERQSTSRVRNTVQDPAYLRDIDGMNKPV
T1 sequence (P35372 whole entry): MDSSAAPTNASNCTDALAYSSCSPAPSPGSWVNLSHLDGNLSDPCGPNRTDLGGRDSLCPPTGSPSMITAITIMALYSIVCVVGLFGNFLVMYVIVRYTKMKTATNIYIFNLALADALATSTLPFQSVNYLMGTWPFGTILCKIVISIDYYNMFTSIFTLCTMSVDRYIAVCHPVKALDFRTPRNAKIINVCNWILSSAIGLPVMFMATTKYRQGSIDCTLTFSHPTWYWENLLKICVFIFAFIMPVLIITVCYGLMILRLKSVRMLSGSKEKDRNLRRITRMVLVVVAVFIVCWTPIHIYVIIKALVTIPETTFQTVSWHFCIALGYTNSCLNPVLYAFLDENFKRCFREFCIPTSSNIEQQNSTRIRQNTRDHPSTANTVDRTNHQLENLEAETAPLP

| Compound | Kb [1] [nM] | Kb [2] [nM] | Kb [3] [nM] |
| --- | --- | --- | --- |
| CC(C)CCNCc1ccc2c(c1)CCc1cc(C(N)=O)ccc1O2 [Example 1, 8-[(3-Methyl-butylamino)-methyl]-10,11-dihydro-dibenzo[b,f]oxepine-2-carboxilic acid amide] | 1.2 | 6.1 | 11 |
| CC(C)CNCc1ccc2c(c1)CCc1cc(C(N)=O)ccc1O2 [Example 2, 8-(Isobutylamino-methyl)-10,11-dihydro-dibenzo[b,f]oxepine-2-carboxylic acid amide] | 12 | 29.8 | – |
| CC(C)CCCNCc1ccc2c(c1)CCc1cc(C(N)=O)ccc1O2 [Example 3, 8-[(4-Methyl-pentylamino)-methyl]-10,11-dihydro-dibenzo[b,f]oxepine-2-carboxylic acid amide] | 0.8 | 6.5 | 7.4 |
| NC(=O)c1ccc2c(c1)CCc1cc(CNCCc3cccs3)ccc1O2 [Example 4, 8-[(2-Thiophen-2-yl-ethylamino)-methyl]-10,11-dihydro-dibenzo[b,f]oxepine-2-carboxylic acid amide] | 0.9 | 12.6 | 7.1 |
| CCCCCNCc1ccc2c(c1)CCc1cc(C(N)=O)ccc1O2 [Example 5, 8-Pentylaminomethyl-10,11-dihydro-dibenzo[b,f]oxepine-2-carboxylic acid amide] | 1.7 | 4.9 | – |
| CCCCCCNCc1ccc2c(c1)CCc1cc(C(N)=O)ccc1O2 [Example 6, 8-Hexylaminomethyl-10,11-dihydro-dibenzo[b,f]oxepine-2-carboxylic acid amide] | 0.7 | 4.4 | 10.3 |
| NC(=O)c1ccc2c(c1)CCc1cc(CNCCC3CCOCC3)ccc1O2 [Example 12, 8-{[2-(Tetrahydro-pyran-4-yl)-ethylamino]-methyl}-10,11-dihydro-dibenzo[b,f]oxepine-2-carboxylic acid amide] | 0.7 | 2.2 | 2.1 |
| CC(C)(C)CCNCc1ccc2c(c1)CCc1cc(C(N)=O)ccc1O2 [Example 13, 8-[(3,3-Dimethyl-butylamino)-methyl]-10,11-dihydro-dibenzo[b,f]oxepine-2-carboxylic acid amide] | 4 | 12.1 | 14.4 |
| NC(=O)c1ccc2c(c1)CCc1cc(CNCCC3CCCC3)ccc1O2 [Example 14, 8-[(2-Cyclopentyl-ethylamino)-methyl]-10,11-dihydro-dibenzo[b,f]oxepine-2-carboxylic acid amide] | 0.6 | 8.6 | 7 |
| CCOCCCNCc1ccc2c(c1)CCc1cc(C(N)=O)ccc1O2 [Example 17, 8-[(3-Ethoxy-propylamino)-methyl]-10,11-dihydro-dibenzo[b,f]oxepine-2-carboxylic acid amide] | 2.1 | 25.7 | 26.7 |
